# Measured values published in US12544393B2, “Apoptosis-mimicking structures for inducing tissue regeneration” (THE REGENTS OF THE UNIVERSITY OF MICHIGAN, priority 2017, dated 2026).
# Tested on: bone marrow stromal cells (BMSCs)
# Assay: Transwell migration assay of BMSCs
# Type: cell-based, mouse
# Description: The macrophage culture, co-cultures with apoptosis mimicking structures, and co-cultures with the control microspheres were also used in transwell assays to determine in vitro bone marrow stromal cell migration. Bone marrow stromal cells (BMSCs) were derived from bone marrow flush, and were cultured in α-MEM medium (20% FBS, Pen/Strep, glutamine) for one time (passage) after isolation.
# Cell migration was assessed in 24-well plate transwells (Corning, Inc.) with a diameter of 6.5 mm and a pore size of 8 μm coated with 0.2 mg/mL collagen type I (EMD Millipore). BMSCs were placed in the upper chambers. Conditioned media from the macrophage culture, the co-cultures, or α-MEM medium (a negative control) containing CCL-2 protein and 0.2% FBS were added to the lower chambers. After 8 hours, cells were fixed with 2.5% glutaraldehyde for 15 minutes. Cells which remained on top of transwell membranes were removed with cotton swabs. Cells that had migrated through the pores to the lower surface were stained with Gill's Hematoxylin (Sigma-Aldrich). Four fields at 200× magnification were selected at random, photo micrographic images were obtained (shown in FIG. 15C), and the cells in each image were counted (results shown in FIG. 15D).
# Different concentrations of recombinant CCL-2 were also examined for increasing BMSC migration.
substance,measurement,setting,value
CCL-2: recombinant C-C motif chemokine ligand 2 protein,increase of BMSCs migration compared with the control medium,concentration of 10 ng/ml,about 70%
same,further increase in BMSCs migration,concentration up to 100 ng/ml,did not cause further increase
